The results in this text go back to patent US11802131B2, “Glutarimides for medical treatment” (C4 Therapeutics, Inc., priority 2017, dated 2023).

SMILES strings stand for the structures. pKd: −log10 of the molar value.

In this assay the target is hCereblon(M1-L442)_hDDB1(M1-H1140) (Homo sapiens (Human), UniProt Q96SW2). Put plainly: Fluorescence direct binding protocol (tryptophan fluorescence titration). The settings on record: 20° C., excited at 280 nm, recorded at 340 nm, assay buffer 50 mM Hepes 7.4 200 mM NaCl; read-out: Fluorescence h-Cereblon_DDB1 Mean Kd_EQ. As to the method: Fluorescence Direct Binding Protocol
Determination of the affinities of compounds to protein containing one or more tryptophan is measurable by monitoring the fluorescence emission in direct mode. The measurements depending on the protein available amounts are performed either manually in a cuvette on ISS-PC1 photon counting spectrofluorometer or automatically in well plates on a fluorescence plate reader device. Fluorescence titrations are performed at 20° C. in the chosen binding assay buffer by using a defined constant protein concentration against ligand concentration variations. Small aliquots of known ligand concentration solubilized in DMSO were added and the fluorescence, excited at 280 nm, was recorded at 340 nm. The fluorescence intensity was corrected for protein dilution and for the filter effect (Birdsall et al.^72).
1) Optimization of measurement parameters to minimize protein consumption and to minimize the dilution effect and the DMSO content
2) Titration measurements of the protein against ligand by at least 12 titration steps to obtain a good s-curve fit
3) Repeat the same titration measurements with the ligand alone to enable correction
4) Check the stability of the protein once by titration against DMSO alone
5) Determination of the molar extinction coefficients of the ligand at 280 and 340 nm with help of an UV-spectrophotometer
6) Use Excel template for the correction of the measured raw data
7) Use GraphPad Prism software for the quadratic binding fit and the KD evaluation.

Sequence of hCereblon(M1-L442)_hDDB1(M1-H1140) (Q96SW2 whole entry): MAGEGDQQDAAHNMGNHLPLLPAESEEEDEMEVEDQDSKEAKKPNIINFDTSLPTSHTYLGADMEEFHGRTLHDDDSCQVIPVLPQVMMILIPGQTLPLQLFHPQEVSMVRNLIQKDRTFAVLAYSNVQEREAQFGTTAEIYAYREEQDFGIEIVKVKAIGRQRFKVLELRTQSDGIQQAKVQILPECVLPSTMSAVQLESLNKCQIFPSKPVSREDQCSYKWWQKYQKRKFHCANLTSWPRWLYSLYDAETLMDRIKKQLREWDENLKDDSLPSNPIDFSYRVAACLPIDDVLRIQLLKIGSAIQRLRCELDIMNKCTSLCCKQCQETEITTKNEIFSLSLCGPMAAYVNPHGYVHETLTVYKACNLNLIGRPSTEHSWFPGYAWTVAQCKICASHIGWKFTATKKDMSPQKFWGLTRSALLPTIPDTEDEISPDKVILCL
Sequence of hCereblon(M1-L442)_hDDB1(M1-H1140) (Q16531 whole entry partner): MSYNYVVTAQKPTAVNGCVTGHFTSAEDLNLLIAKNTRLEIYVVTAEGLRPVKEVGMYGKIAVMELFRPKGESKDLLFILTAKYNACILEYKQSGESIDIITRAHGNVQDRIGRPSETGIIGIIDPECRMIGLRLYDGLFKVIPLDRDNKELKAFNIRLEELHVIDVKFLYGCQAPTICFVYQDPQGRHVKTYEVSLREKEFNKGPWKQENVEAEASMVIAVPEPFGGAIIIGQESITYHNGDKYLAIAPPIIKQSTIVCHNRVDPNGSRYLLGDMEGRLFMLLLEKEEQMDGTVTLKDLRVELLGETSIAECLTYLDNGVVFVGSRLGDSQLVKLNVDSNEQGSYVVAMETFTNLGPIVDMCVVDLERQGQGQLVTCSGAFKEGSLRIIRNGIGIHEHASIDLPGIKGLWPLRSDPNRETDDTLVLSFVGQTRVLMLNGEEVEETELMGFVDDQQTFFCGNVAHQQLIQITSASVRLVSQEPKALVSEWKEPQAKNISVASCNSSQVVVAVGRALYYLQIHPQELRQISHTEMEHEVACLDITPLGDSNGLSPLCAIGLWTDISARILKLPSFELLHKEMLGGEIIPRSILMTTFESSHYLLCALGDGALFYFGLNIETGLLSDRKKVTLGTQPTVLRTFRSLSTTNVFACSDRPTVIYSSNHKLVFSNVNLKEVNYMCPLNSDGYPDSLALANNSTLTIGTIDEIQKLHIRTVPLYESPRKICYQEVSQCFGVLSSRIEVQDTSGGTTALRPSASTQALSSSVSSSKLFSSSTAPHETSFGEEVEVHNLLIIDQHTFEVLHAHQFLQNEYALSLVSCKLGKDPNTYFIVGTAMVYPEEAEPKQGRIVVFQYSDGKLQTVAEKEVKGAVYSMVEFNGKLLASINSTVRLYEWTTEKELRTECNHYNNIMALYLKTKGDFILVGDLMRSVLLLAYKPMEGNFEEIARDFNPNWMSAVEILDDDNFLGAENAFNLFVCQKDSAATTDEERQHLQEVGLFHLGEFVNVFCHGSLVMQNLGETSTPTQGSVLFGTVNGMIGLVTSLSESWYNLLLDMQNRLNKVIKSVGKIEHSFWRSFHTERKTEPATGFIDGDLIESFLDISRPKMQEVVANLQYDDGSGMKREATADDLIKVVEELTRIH

Consider `Cc1sc2c(c1C)C(c1ccc(Cl)cc1)=N[C@@H](CC(=O)NCCCCCC(=O)N1CC[C@H](C(=O)N[C@H]3CCC(=O)NC3=O)c3ccccc31)c1nnc(C)n1-2` [Example A, (4S)-1-[6-[[2-[(9S)-7-(4-Chlorophenyl)-4,5,13-trimethyl-3-thia-1,8,11,12-tetrazatricyclo[8.3.0.02,6]trideca-2(6),4,7,10,12-pentaen-9-yl]acetyl]amino]hexanoyl]-N-[(3S)-2,6-dioxo-3-piperidyl]-3,4-dihydro-2H-quinoline-4-carboxamide], for which the pKd was 8.00.

On to `Cc1sc2c(c1C)C(c1ccc(Cl)cc1)=N[C@@H](CC(=O)NCCCCCC(=O)N1CC[C@H](C(=O)N[C@@H]3CCC(=O)NC3=O)c3ccccc31)c1nnc(C)n1-2` [Example B, (4S)-1-[6-[[2-[(9S)-7-(4-Chlorophenyl)-4,5,13-trimethyl-3-thia-1,8,11,12-tetrazatricyclo[8.3.0.02,6]trideca-2(6),4,7,10,12-pentaen-9-yl]acetyl]amino]hexanoyl]-N-[(3R)-2,6-dioxo-3-piperidyl]-3,4-dihydro-2H-quinoline-4-carboxamide], for which the pKd was 7.43.

On to `Cc1sc2c(c1C)C(c1ccc(Cl)cc1)=N[C@@H](CC(=O)NCCOCCOCCOCC(=O)N1CC[C@@H](C(=O)N[C@H]3CCC(=O)NC3=O)c3ccccc31)c1nnc(C)n1-2` [Example C, (4R)-1-[2-[2-[2-[2-[[2-[(9S)-7-(4-Chlorophenyl)-4,5,13-trimethyl-3-thia-1,8,11,12-tetrazatricyclo[8.3.0.02,6]trideca-2(6),4,7,10,12-pentaen-9-yl]acetyl]amino]ethoxy]ethoxy]ethoxy]acetyl]-N-[(3S)-2,6-dioxo-3-piperidyl]-3,4-dihydro-2H-quinoline-4-carboxamide], for which the pKd was 8.10.
